Blank lines part the entries; values can stand above or below the molecule they belong to.
Key:
[1] = Evaluation of light stability (fluorescence intensity over time under UV excitation); assay type: physicochemical; conditions: 3000 seconds after excitation by UV irradiation; toluene; 5 μM; excitation 378 nm; detection 483 nm
Procedure: The light stability of the compound A obtained in Example 1 was evaluated.
The light stability of the compound A and that of a commercially available solvatochromic dye Laurdan were compared (solvent: toluene; each dye concentration: 5 μM; excitation wavelength: 378 nm; detection wavelength: 483 nm). Laurdan is a compound with a CAS number of 74515-25-6. The fluorescence spectrum measurement was carried out using the same instrument as that used in Example 2.

[2] = Photophysical properties (absorption spectrum, fluorescence spectrum, fluorescence quantum yield) in organic solvents; assay type: physicochemical; conditions: 5 μM
Procedure: The absorption spectrum and fluorescence spectrum in organic solvents of the compound A obtained in Example 1 were measured.
(§1) The absorption spectrum and the fluorescence spectrum were measured using a UV-Visible/NIR spectrophotometer (V-670 manufactured by JASCO Corporation) and a spectrofluorometer (FP6600 manufactured by JASCO Corporation), respectively. The fluorescence quantum yield was measured using an absolute PL quantum yield spectrometer (Hamamatsu Photonics K.K.: C 9920-02V). The concentration of the compound A was 5 μM for each solvent. For solvent species, toluene, dichloromethane, DMSO, and ethanol were used.
The absorption spectrum and fluorescence spectrum in organic solvents of the compound B obtained in Example 8 were measured.
as §1, with “Corporation), respectively, in the same manner as in Example 2.” for “Corporation), respectively.”, “compound B” for “compound A”
The absorption spectrum and fluorescence spectrum in organic solvents of the compound C obtained in Example 10 were measured.
as §1, with “Corporation), respectively, in the same manner as in Example 2.” for “Corporation), respectively.”, “compound C” for “compound A”

[3] = Fluorescence spectrum measurement in lipid membrane (liposome); assay type: physicochemical; conditions: compound 2 μM, lipid 200 μM
Procedure: The fluorescence spectrum of the compound A obtained in Example 1 in a lipid membrane (liposome) was measured. More specifically, the fluorescence spectrum of the compound A in a liposome composed of 1,2-dioleoyl-sn-glycero-3-phosphocholine (DOPC) and sphingomyelin (SM)/cholesterol (Chol) was measured (compound A concentration: 2 μM, lipid concentration: 200 μM). The fluorescence spectrum measurement was carried out using the same instrument as that used in Example 2.

[4] = tested on: human prostate cancer cells (PC3); assay: Confocal fluorescence imaging of stained cells; assay type: cell-based; conditions: 500 nM, 30 minutes at room temperature; excitation 405 nm; green (490-590 nm) and red (655-755 nm) channels
Procedure: Fluorescence imaging of cells was performed using the compound A obtained in Example 1. More specifically, confocal fluorescence imaging of human prostate cancer cells (PC3) stained with the compound A of the Example was performed (compound A concentration: 500 nM; excitation wavelength: 405 nm).
For microscopic observation, a confocal scanning laser microscope (manufactured by Olympus Corporation, FV1000-D) was used. In the measurement, fluorescence was detected in a green (490-590 nm) channel and a red (655-755 nm) channel using a 405 nm laser light source.
As the human prostate cancer cells used for the observation, cultured cells were used. The compound A (500 nM) was added to the cultured cells, and the mixture was allowed to stand at room temperature for 30 minutes, and then imaging was performed.

[5] = tested on: human keratinocyte K16 (P4); assay: Toxicity evaluation (MTT test); assay type: cell-based; conditions: 100 μM, 24 hours
Procedure: The toxicity of fluorescence imaging of cells using the compound A obtained in Example 1 was evaluated. More specifically, the toxicity evaluation (MTT test) of the compound A to human keratinocyte K16 (P4) was performed. As a toxicity evaluation procedure, first, a medium containing the compound A at a maximum concentration of 100 μM (maximum DMSO concentration=0.5% v/v) was added to cells to prepare a 2-fold dilution series. After 24 hours, the medium was discarded and an MTT reagent ([…]) was added. After 3 hours, a 10% SDS reagent was added to the cells, and the absorbance at 570 nm was measured the next day.

[6] = tested on: human skin tissue (frozen tissue); assay: Two-photon fluorescence imaging of stained human skin tissue; conditions: 10 μM; excitation 960 nm; in combination with clearing reagent (LUCID)
Procedure: Human skin tissue (frozen tissue) imaging was performed using the compound A obtained in Example 1. More specifically, two-photon fluorescence imaging of human skin tissues (frozen tissues) stained with the compound A of the Example was performed (compound A concentration: 10 μM, excitation wavelength: 960 nm; a clearing reagent (LUCID) was used in combination.).
For microscopy, a two-photon microscope A1R MP+(NIKON) was used. In the measurement, 960 nm was used as a laser light source for excitation for the compound A. Scanning was performed to a depth of 100 μm of the sample. The three-dimensional reconstructed image is obtained by processing the obtained data with attached software.
Human skin tissues were embedded in paraffin and then cut out to prepare tissue sections. The preparation of the sections (thickness: 5 μm) was performed by the procedure usually performed in histopathological examination. For staining with the compound A dye, deparaffinization was performed by a conventional method, and then staining was performed by immersion in the aforementioned dye at room temperature for several days to one week. In practice, the tissues were sufficiently stained by immersion in the dye at room temperature for 2 to 3 days.

Fluorescence intensity (light stability) [1]: ≤ 0.6
SMILES: CCCCCCCCCCCC(=O)c1ccc2cc(N(C)C)ccc2c1 [Laurdan, reference compound]

SMILES: CCCC(=O)/C=C/c1ccc2ccc3c(N4CCCCC4)ccc4ccc1c2c43 [compound A]
Fluorescence quantum yield ([2]; DCM): 86%
Maximum absorption wavelength ([2]; DCM): 427 nm
Maximum fluorescence wavelength ([2]; DCM): 615 nm
Fluorescence quantum yield ([2]; DMSO): 79%
Maximum absorption wavelength ([2]; DMSO): 429 nm
Maximum fluorescence wavelength ([2]; DMSO): 647 nm
Fluorescence quantum yield ([2]; EtOH): 20%
Maximum absorption wavelength ([2]; EtOH): 427 nm
Maximum fluorescence wavelength ([2]; EtOH): 691 nm
Fluorescence quantum yield ([2]; Toluene): 82%
Maximum absorption wavelength ([2]; Toluene): 424 nm
Maximum fluorescence wavelength ([2]; Toluene): 546 nm
Fluorescence solvatochromism ([2]; toluene, dichloromethane, DMSO, ethanol): fluorescence solvatochromism sensitive to solvent polarity was observed
Fluorescence intensity (light stability) [1]: the fluorescence intensity was maintained as it was
Fluorescence quantum yield ([3]; DOPC liposome): 37%
Maximum fluorescence wavelength ([3]; DOPC liposome): 603 nm
Fluorescence quantum yield ([3]; SM/Chol liposome): 72%
Maximum fluorescence wavelength ([3]; SM/Chol liposome): 577 nm
Fluorescence in cell membrane (plasma membrane) and oil droplets (lipid droplet) [4]: strong fluorescence was observed in the green channel
cell viability [5]: 93.9%
Staining of human skin tissue [6]: capable of strongly staining the membrane of each cell constituting the human skin tissue

From patent US20240218242A1, “COMPOUND, FLUORESCENT DYE, KIT, AND METHOD FOR DETECTING CELLS” (NATIONAL UNIVERSITY CORPORATION KOCHI UNIVERSITY, priority 2021, published 2024)
